Experimental data published in US20110117069A1, “METHOD FOR ACTIVATING REGULATORY T-CELLS” (IMTM GMBH, priority 2007, published 2011).
Like-named read-outs stand apart in the source and are kept apart here.

Legend:
APN = conditions: cited from earlier work; for Ki: α-Keto amides
LAP = LAP (Homo sapiens, UniProt P28838); conditions: α-Aminoboric acids; cited from earlier work
Argininyl AP = Argininyl AP (Homo sapiens, UniProt Q9H4A4); conditions: α-Keto amides, cited from earlier work
Cytosolic AP = conditions: α-Keto amides; cited from earlier work
[1] = test system: human regulatory T-cells (CD4+CD25+); assay: Co-culture of human effector cells (CD4+CD25-) and regulatory T-cells, proliferation by tritium thymidine inclusion; format: cell-based; conditions: for effect of the inhibitor on suppressive capacity of the Treg cells: 120 hours co-culture, anti-CD3
Excerpt: Mononuclear cells were obtained from the peripheral blood of healthy donors by means of density-gradient centrifugation. The isolation of regulatory T-cells occurred by means of a two-stage magnetic separation:
In a first step CD4^+ T-cells were recovered by depletion of all CD4-negative cells [CD4 separation kit, Miltenyi Biotech, Bergisch-Gladbach, Germany]. The purity achieved regularly amounted to >95% CD4^+ T-cells.
In a second step CD4^+CD25^+ regulatory T-cells were in turn isolated from this population by magnetic column separation using CD25 marking [anti-CD25 MicroBeads, Miltenyi Biotech].
The CD4^+CD25^− fraction served as effector cell control.
The functional capacity of the regulatory T-cells was tested in a special co-culture. For this, 20 000 effector cells (CD4^+CD25^−) and regulatory T-cells (CD4^+CD25^+) in total were respectively cultivated in different quantitative ratios to one another over a period of 120 hours in microtest plates. A solid phase-bound anti-CD3 antibody [UCHT1, 0.25 μg/well] was used as activator of the T-cell stimulation.
The degree of proliferation of the cultivated cells was analysed on the basis of the DNA synthesis rate by means of tritium thymidine inclusion over 24 hours [n=5].
The degree of proliferation of the cultivated cells was analysed on the basis of the DNA synthesis rate by means of tritium thymidine inclusion over 24 hours [n=3].
Mononuclear cells were obtained from the peripheral blood of healthy donors by means of density-gradient centrifugation. A T-cell separation followed using nylon pad adherence.
The isolation of regulatory T-cells occurred by means of a two-stage magnetic separation:
The degree of proliferation of the cultivated cells was analysed on the basis of the DNA synthesis rate by means of tritium thymidine inclusion over 24 hours [n=10].

[2] = test system: murine regulatory T-cells (CD4+CD25+); assay: Co-culture of murine effector cells (MNC-CD25-) and regulatory T-cells, proliferation by tritium thymidine inclusion; format: cell-based, mice; conditions: 1.0 μM, after 5 days of co-culture, anti-CD3/anti-CD28
Description: Mononuclear cells (MNC) were obtained from the peripheral blood of healthy mice by means of density-gradient centrifugation. The isolation of regulatory T-cells occurred using CD25 marking [anti-CD25 MicroBeads, Miltenyi Biotech]. The CD25^− MNC fraction served as effector cell control.
The functional capacity of the regulatory T-cells was tested in a special co-culture. For this, 20 000 effector cells (MNC-CD25^−) and regulatory T-cells (CD4^+CD25^+) in total were respectively cultivated in different quantitative ratios to one another over a period of 120 hours in microtest plates. The T-cell stimulation occurred by adding anti-CD3/anti-CD28 [1 μg/ml].
The degree of proliferation of the cultivated cells was analysed on the basis of the DNA synthesis rate by means of tritium thymidine inclusion over 24 hours [n=4].

colitis in Balb-c mice = assay: DSS colitis model in mice, disease activity index (DAI); format: in vivo; conditions: single intravenous application on day 3, phebestin 0.5 mg/kg or 1 million cells/animal, up to 48 hours after application
Excerpt: Colitis was triggered in Balb-c mice by the oral application of 3% dextran sodium sulphate solution (DSS). The degree of severity of the illness was established on the basis of a disease activity index (DAI). This consisted of the daily documentation of body weight loss, stool consistency, rectal bleeding, food and water intake, and is defined in the publication “Bank, U., Heimburg, A., Helmuth, M., Stefin, S., Lendeckel, U., Reinhold, D., Faust, J., Fuchs, P., Sens, B., Neubert, K., Täger, M., Ansorge, S.; Triggering endogenous immunosuppressive mechanisms by combined targeting of dipeptidyl peptidase IV (DPIV/CD26) and aminopeptidase N (APN/CD13)—A novel approach for the treatment of inflammatory bowel disease; International Immunopharmacology 6: 1925-1934 (2006)”.
Regulatory T-cells from peripheral venous blood were recovered in parallel by means of density-gradient centrifugation and magnetic separation using CD25 Microbeads.
On day 3, either the aminopeptidase N inhibitor phebestin (0.5 mg/kgKG), untreated CD4^+CD25^+ Treg cells (1 million cells/animal) or activated CD4^+CD25^+ Treg cells (1 million cells/animal) were applied once intravenously.
The activation of the Treg cells occurred ex situ using the method according to the invention by incubating the Treg cells for 45 minutes in the presence of phebestin [500 μg/ml].

[3] = α-Aminoboric acids, read-out: IC50, μM (APN)
[4] = N-Phenylphthalimides and -homophthalimides, enzyme not given, alanyl-aminopeptidase, read-out: IC50
[5] = β-Aminothiols table, read-out: IC50 (nM) APN

Chain of LAP (P28838 whole entry): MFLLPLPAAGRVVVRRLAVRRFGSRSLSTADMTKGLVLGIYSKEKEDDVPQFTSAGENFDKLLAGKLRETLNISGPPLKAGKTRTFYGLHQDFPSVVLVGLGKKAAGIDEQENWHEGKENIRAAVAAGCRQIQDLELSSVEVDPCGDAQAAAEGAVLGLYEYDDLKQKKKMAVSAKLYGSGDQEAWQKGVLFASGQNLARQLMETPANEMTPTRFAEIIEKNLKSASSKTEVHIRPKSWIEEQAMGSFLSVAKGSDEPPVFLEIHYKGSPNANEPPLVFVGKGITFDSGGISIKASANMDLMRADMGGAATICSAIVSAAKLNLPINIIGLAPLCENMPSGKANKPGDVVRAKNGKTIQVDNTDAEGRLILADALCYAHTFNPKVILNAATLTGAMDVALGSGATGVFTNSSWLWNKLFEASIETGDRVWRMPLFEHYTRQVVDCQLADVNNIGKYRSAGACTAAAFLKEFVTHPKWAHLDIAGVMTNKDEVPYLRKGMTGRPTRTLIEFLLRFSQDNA
Chain of Argininyl AP (Q9H4A4 whole entry): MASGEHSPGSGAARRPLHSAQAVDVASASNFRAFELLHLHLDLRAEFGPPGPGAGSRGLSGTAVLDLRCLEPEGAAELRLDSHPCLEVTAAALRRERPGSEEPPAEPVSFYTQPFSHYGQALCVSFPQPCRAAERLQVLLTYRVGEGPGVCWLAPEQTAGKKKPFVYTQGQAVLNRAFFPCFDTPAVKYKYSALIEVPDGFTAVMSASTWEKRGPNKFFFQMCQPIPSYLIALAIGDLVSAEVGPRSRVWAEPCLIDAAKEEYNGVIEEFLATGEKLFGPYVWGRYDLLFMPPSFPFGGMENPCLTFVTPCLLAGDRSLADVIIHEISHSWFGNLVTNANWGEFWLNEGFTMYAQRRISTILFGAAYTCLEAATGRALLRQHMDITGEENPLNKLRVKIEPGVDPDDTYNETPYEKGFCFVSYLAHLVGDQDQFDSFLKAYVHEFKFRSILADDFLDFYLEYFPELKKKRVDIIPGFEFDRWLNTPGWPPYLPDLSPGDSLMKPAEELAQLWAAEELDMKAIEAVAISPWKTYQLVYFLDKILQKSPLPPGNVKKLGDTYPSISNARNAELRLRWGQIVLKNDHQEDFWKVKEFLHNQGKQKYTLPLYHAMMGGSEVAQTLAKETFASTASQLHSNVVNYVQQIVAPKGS

In the case of `C[C@@H](N)B1OC(C)(C)C(C)(C)O1`, the IC50 (APN; [3]) is given as 0.07 µM and the IC50 (LAP) is given as 0.35 µM.

In the case of `CSc1ccccc1N1C(=O)Cc2ccccc2C1=O`, the IC50 (APN; [4]) is listed as 0.9 µM.

In the case of `CC(C)c1cccc(C(C)C)c1N1C(=O)Cc2c(O)cccc2C1=O`, the IC50 (APN; [4]) is given as 4.3 µM.

For `CC(C)C[C@@H](N)B(O)O`, the IC50 (LAP) is listed as 0.25 µM.

In the case of `N[C@H](Cc1ccccc1)B1OCCCO1`, the IC50 (LAP) is given as 0.2 µM.

In the case of `CC(C)CCNC(=O)[C@@H](O)[C@H](N)Cc1ccccc1`, the Ki (APN) is given as 20 µM.

For `NC(CS)Cc1ccc(O)cc1` (centres unmarked), the IC50 (APN; [5]) is listed as 0.045 µM.

For `CC(C)CCNC(=O)C(=O)C(N)CC(C)C` (racemic), the Ki (APN; (R) isomer) is listed as 18.6 µM, the Ki (APN; (S) isomer) is listed as 10.5 µM and the Ki (Argininyl AP; (R) isomer) is listed as 6.5 µM. The Ki (Argininyl AP; (S) isomer) was 3.2 µM.

In the case of `CC(C)CCNC(=O)C(=O)[C@@H](N)Cc1ccccc1`, the Ki (APN) is listed as 2.5 µM, the Ki (Cytosolic AP) is listed as 1 µM and the Ki (Argininyl AP) is listed as 1.5 µM.

In the case of `NC(CS)c1ccccc1` (centres unmarked), the IC50 (APN; [5]) is given as 0.025 µM.

In the case of `CCCCC[C@H](CC(=O)NO)C(=O)N[C@H](C(=O)N1CCC[C@H]1CO)C(C)C` [actinonin], the “effect of the inhibitor on suppressive capacity of the Treg cells” value ([1]; physiologically relevant range of 10:1 effector cells to Treg cells (10% Treg)) is reported as “significant intensification of the suppressive capacity” and the “effect of the inhibitor on suppressive capacity of the Treg cells” value ([1]; ratio of 1:1 of effector cells to Treg cells (50% Treg)) is reported as “no reliable effect”.

In the case of `CC(C)(C)SCC(N)CS` (centres unmarked), the IC50 (APN; [5]) is listed as 0.04 µM.

For `CC1(C)OB([C@H](N)Cc2ccccc2)OC1(C)C`, the IC50 (APN; [3]) is given as 0.05 µM and the IC50 (LAP) is given as 0.2 µM.

In the case of `CCOC(=O)[C@H](N)CS`, the IC50 (APN; [5]) is listed as 0.35 µM.

For `NC(CS)CC1CCCCC1` (centres unmarked), the IC50 (APN; [5]) is given as 0.045 µM.

For `NC(CS)COCc1ccccc1` (centres unmarked), the IC50 (APN; [5]) is given as 0.056 µM.

In the case of `CC(C)[C@H](NC(=O)[C@@H](O)[C@H](N)Cc1ccccc1)C(=O)N[C@@H](Cc1ccccc1)C(=O)O` [phebestin], the “induction of suppressive capacity of the regulatory T-cells” value [2] is reported as “induced the suppressive capacity of the regulatory T-cells to a significant degree” and the “activity of the disease (disease activity index) / clinical symptoms” value (colitis in Balb-c mice) is reported as “no effect”.

In the case of `CC(C)c1cccc(C(C)C)c1N1C(=O)Cc2c(N)cccc2C1=O`, the IC50 (APN; [4]) is listed as 5.4 µM.

In the case of `CC(C)CCNC(=O)[C@@H](O)[C@H](N)CC(C)C`, the Ki (APN) is listed as 24 µM and the Ki (Argininyl AP) is listed as > 300 µM.

In the case of `CC(C)C[C@@H](N)B1OC(C)(C)C(C)(C)O1`, the IC50 (APN; [3]) is given as 0.074 µM and the IC50 (LAP) is given as 0.25 µM.

For `CCc1cccc(CC)c1-n1c(=O)[nH]c2ccccc2c1=O` [PAQ22, 3-(2,6-diethylphenyl-)quinazoline-2,4(1H3H)-dione], the “induction of suppressive capacity of the regulatory T-cells” value ([1]; 10% and 5% Treg cell components, after 5 days of co-culture) was “induced the suppressive capacity”.
